# Experimental data from US4623649A, “Substituted β-carbolines, and use thereof as medicinal agents” (Schering Aktiengesellschaft, priority 1983, dated 1986).
# How the values were obtained:
# [1] = target: benzodiazepine receptors; conditions: footnote * Nature 294(1981)472; cited from earlier work
# [2] = target: benzodiazepine receptors; assay: in vitro displacement of 3H flunitrazepam (or 3H diazepam) from benzodiazepine receptors, rat cerebrum suspension; assay type: binding; conditions: rat cerebral membrane suspension, 3H flunitrazepam 1.0 nM, 0° C., pH 7.1
# [3] = tested on: benzodiazepine receptor; assay: in vivo reduction of specific binding of 3H flunitrazepam to the benzodiazepine receptor in living brain, mice; parameters: unit not given beside the values; conditions: normally subcutaneous, 3H flunitrazepam i.v. after 15 minutes, sacrificed after another 20 minutes
Compound,"IC50, displacement of specific binding of 3H flunitrazepam (in vitro), entry footnoted Nature 294(1981)472 [1]","IC50, displacement of specific binding of 3H flunitrazepam (in vitro) [2]","ED50, reduction of specific binding of flunitrazepam to 50% of control (in vivo) [3]"
"COC(=O)c1cc2c(cn1)[nH]c1ccccc12 [CO2 Me, H, H, H]",1.9 ng/mL,–,–
CCOC(=O)c1ncc2[nH]c3ccc(C4CCCC(=O)C4)cc3c2c1C (stereo not drawn),–,0.6 ng/mL,–
CCOC(=O)c1cc2c(cn1)[nH]c1ccc(C(C)C)cc12,–,0.9 ng/mL,–
"6-(1- and 2-cyclohexen-4-yl)-4-methoxymethyl-3-(3-ethyl-1,2,4-oxadiazol-5-yl)-β-carboline",–,1.5 ng/mL,1.9
"CCOC(=O)c1ncc2[nH]c3ccc(CCc4ccccc4)cc3c2c1C [CO2 Et, Me, H, CH2CH2C6 H5, 6-phenethyl-4-methyl-β-carboline-3-carboxylic acid ethyl ester]",–,14 ng/mL,–
"CCOC(=O)c1ncc2[nH]c3cccc(Cc4ccccc4)c3c2c1COC [CO2 Et, CH2 OCH3, CH2C6 H5, H, 5-benzyl-4-methoxymethyl-β-carboline-3-carboxylic acid ethyl ester]",–,0.5 ng/mL,–
"CCOC(=O)c1ncc2[nH]c3ccc(C(C)(C)C)cc3c2c1C [CO2 Et, Me, H, C(CH3)3, 6-tert-butyl-4-methyl-β-carboline-3-carboxylic acid ethyl ester]",–,7.5 ng/mL,–
CCOC(=O)c1ncc2[nH]c3ccc(C4CCCCC4)cc3c2c1C,–,12 ng/mL,–
CCOC(=O)c1ncc2[nH]c3ccc(C4=CCCCCCC4)cc3c2c1C,–,19 ng/mL,–
4-methoxymethyl-6-(1- and 2-cyclohexen-4-yl)-β-carboline-3-carboxylic acid ethyl ester,–,0.7 ng/mL,0.5
